How the values were obtained:
[1] = Primary ocular irritation, topical drops; format: in vivo
Description: The test article, CA4P, was evaluated for primary ocular irritation. A single 0.2 ml dose of CA4P dilution (0.1, 1.0, 10 and 100 mg/ml) was placed in the lower conjunctival sac of the left eye […]. The contralateral eye received buffered saline solution. Ocular reactions were evaluated at 24, 48 and 72 hours after the sample instillation.

[2] = Biodistribution of 14C-CA4P following intravitreal injection; format: in vivo, New Zealand rabbits
Description: (§1) ^14C-CA4P (OXiGENE Inc., Watertown, Mass.) was resuspended in 100 ul volume of saline solution and injected with a 30 G needle into the right eyes of anesthesized male New Zealand rabbits (4 months old, 1.8-2.5 kg, n=3 per sample). Three different concentrations of ^14C-CA4P were tested (1, 10, 100 mg/ml) corresponding to doses of 1, 5, and 5 uCi of applied radioactivity respectively. A blank control group was also included. Rabbits were anaesthetized at 1, 6, 24, and 48 hours for blood sampling. After blood collection, the animals were euthanized by Phenobarbital injection and the treated right eyes were removed from all test animals. Ocular tissue samples were dissected from the cornea, aqueous humor, vitreous humor, choroid, or retina, placed in 20-mi glass scintillation vials, vortexed, and incubated for 24 hrs with 500 ul digesting fluid. Plasma was separated from whole blood by centrifugation (1,800 g for 10 minutes). Both ocular tissue samples and plasma were incubated at room temperature with 16 ml of Hionic Fluor™ scintillation fluid for a period of 24 hours prior to radioactivity counting. Each sample was counted for 5 minutes in a Betamatic V counter (Bio-Tek Kontron Instruments, St Quentin en Yvelines, France). The conversion of counts per minute (“cpm”) into disintegrations per minute (“dpm”) was performed automatically by the beta-counter, using calibration curves obtained from ^14C-standards and quenching curves from the respective blank matrices spiked with ^14C-standards. The concentration of drug was determined according to nanogram equivalents of CA4P (ng-Eq/g of tissue) which was calculated from the measured dpm value, the weight of the tissue specimen, and the specific activity of the drug (0.37 mCi/mg), followed by subtraction of the corresponding background value from control eye tissue. A tissue concentration of 1 uM CA4P is equal to […] tissue.

[3] = Biodistribution of 14C-CA4P following sub-Tenon's injection; format: in vivo, New Zealand rabbits
Description: as §1

[4] = test system: choroidal neovascularization; assay: Krypton laser murine model of choroidal neovascularization; format: in vivo, C57BL/6J mouse; conditions: for Average Vessel Lumen Area: vehicle 0.0129886
Description: Choroidal neovascularization is a major cause of severe vision loss in patients with age-related or wet macular degeneration. To investigate the capacity of CA4P to inhibit vascular growth in the choroids, a murine model of Choroidal Neovascularization was tested. In this model the investigator used a krypton laser to create a wound on the Bruch's membrane of a C57BL/6J mouse. Each eye received several burns. The burn elicited a classic wound-healing response that included neovascularization within the choroid. This krypton laser photocoagulation method has been described in Tobe et al., Am. J. of Pathology, 1998, 153(5):1641-6. […] Histopathology and fluorescein angiography were used to identify neovascularization surrounding the burn. Electron microscopy was used to measure the lumen diameter of fenestrated neovasculature within the choroidal neovascular lesions. Table 12 illustrates the results of CA4P treatment on the average vessel lumen area.

[5] = test system: oxygen-induced retinal neovascularization; assay: Murine model of oxygen-induced retinal neovascularization (ROP); format: in vivo; conditions: neonatal mouse treated upon removal from hyperoxic conditions
Text: The inner retina of the mammalian eye receives oxygen from the superficial retinal capillary bed. This capillary bed is located beneath the inner limiting membrane which serves as the interface between the inner retina and the outer avascular vitreous. The pathology of retinal neovascularization or retinopathy arises from ischemia-induced growth of neovasculature beyond the retinal inner limiting membrane and into the vitreous, causing severe loss of vision and frequently leading to retinal detachment. […] In this model neonatal mice are exposed to sustained hyperoxic conditions (75% oxygen for 7 days) that inhibit the development of the superficial retinal capillary bed. When a mouse pup is removed from the pure oxygen environment and placed in the relative hypoxia of environmental oxygen, the underdeveloped superficial retinal capillary bed is unable to deliver sufficient quantities of oxygen to the retina. […]
It is expected that the treatment of a neonatal mouse with CA4P immediately upon its removal from hyperoxic conditions would be an effective treatment method for ROP. Retinal neovascularization can be quantified by counting the number chemically stained nuclei of penetrating endothelial cells in retinal tissue section of treated and untreated eyes according to existing methods (Majka et al., Invest. Ophthalmol. Vis. Sci. 2001, 42: 210-15).

[6] = test system: corneal neovascularization; assay: LHP-induced rabbit corneal neovascularization model, IP treatment; format: in vivo, New Zealand rabbits; conditions: late intervention, 50 mg/kg IP from Day 10 (Group 4)

COc1ccc(/C=C\c2cc(OC)c(OC)c(OC)c2)cc1OP(=O)([O-])[O-].[Na+].[Na+] [CA4P, combretastatin A4 disodium phosphate]
Irritation (Draize Scores) ([1]; Topical, 0-10 mg): No Irritation
Macroscopic ocular reaction vs control ([1]; all dilutions 0.1-100 mg/ml, single 0.2 ml topical dose, 24-72 h): insignificant
Microscopic ocular irritation vs buffered saline ([1]; topical drops 0.1-100 mg/ml): not considered an irritant
Cmax ([2]; aqueous humor, 1 mg/ml intravitreal): 0.15 µM
Cmax ([2]; aqueous humor, 10 mg/ml intravitreal): 0.79 µM
Cmax ([2]; aqueous humor, 100 mg/ml intravitreal): 460 µM
Cmax ([2]; cornea, 1 mg/ml intravitreal): 95 µM
Cmax ([2]; cornea, 10 mg/ml intravitreal): 969 µM
Cmax ([2]; cornea, 100 mg/ml intravitreal): 5870 µM
Time of highest concentrations of drug in the eye ([2]; intravitreal injection): within the first hour
Cmax ([2]; plasma, 1 mg/ml intravitreal): 0.4 µM
Cmax ([2]; plasma, 10 mg/ml intravitreal): 0.2 µM
Cmax ([2]; plasma, 100 mg/ml intravitreal): 0.78 µM
Cmax ([2]; retina, 1 mg/ml intravitreal): 160 µM
Cmax ([2]; retina, 10 mg/ml intravitreal): 1980 µM
Cmax ([2]; retina, 100 mg/ml intravitreal): 10700 µM
Concentration of drug delivered ([2]; retina, all concentrations tested, intravitreal): > 1 µM
Cmax ([2]; sclera, 1 mg/ml intravitreal): 19 µM
Cmax ([2]; sclera, 10 mg/ml intravitreal): 153 µM
Cmax ([2]; sclera, 100 mg/ml intravitreal): 16100 µM
Cmax ([2]; vitreous, 1 mg/ml intravitreal): 75 µM
Cmax ([2]; vitreous, 10 mg/ml intravitreal): 757 µM
Cmax ([2]; vitreous, 100 mg/ml intravitreal): 10000 µM
Cmax ([3]; aqueous humor, 1 mg/ml sub-Tenon's): 0.3 µM
Cmax ([3]; aqueous humor, 10 mg/ml sub-Tenon's): 1.8 µM
Cmax ([3]; aqueous humor, 100 mg/ml sub-Tenon's): 5.92 µM
Cmax ([3]; choroid, 1 mg/ml sub-Tenon's): 1.2 µM
Cmax ([3]; choroid, 10 mg/ml sub-Tenon's): 6.2 µM
Cmax ([3]; choroid, 100 mg/ml sub-Tenon's): 861 µM
Cmax ([3]; plasma, 1 mg/ml sub-Tenon's): 0.07 µM
Cmax ([3]; plasma, 10 mg/ml sub-Tenon's): 0.49 µM
Cmax ([3]; plasma, 100 mg/ml sub-Tenon's): 9.3 µM
Concentration of drug delivered ([3]; retina and choroid, 100 and 10 mg/ml, sub-Tenon's): > 1 µM
Cmax ([3]; retina, 1 mg/ml sub-Tenon's): 0.85 µM
Cmax ([3]; retina, 10 mg/ml sub-Tenon's): 7.1 µM
Cmax ([3]; retina, 100 mg/ml sub-Tenon's): 171 µM
Time of highest concentrations of drug in the eye ([3]; sub-Tenon's injection): within the first hour
Cmax ([3]; vitreous, 1 mg/ml sub-Tenon's): 0.019 µM
Cmax ([3]; vitreous, 10 mg/ml sub-Tenon's): 0.13 µM
Cmax ([3]; vitreous, 100 mg/ml sub-Tenon's): 3.9 µM
Average Vessel Lumen Area ([4]; 10 mg/kg): 0.01186 mm^2
Average Vessel Lumen Area ([4]; 20 mg/kg): 0.01101 mm^2
Average Vessel Lumen Area ([4]; 100 mg/kg IP): 0.007612 mm^2
Less vascular lumen area compared to saline ([4]; 100 mg/kg/day IP): approximately 50%
Number of nuclei penetrating the inner limiting membrane [5]: significantly reduced
Vessel Length on Day 24 [6]: 1.4 ± 0.46 mm

From patent US20040229960A1, “Compositions and methods of administering tubulin binding agents for the treatment of ocular diseases” (priority 2001, published 2004)
